{"source": "patent US20250041272A1", "about": "“COMPOSITIONS AND METHODS FOR TREATING CANCER VIA PTP1B INHIBITION” (priority 2021, published 2025)", "key": {"GEMM6 tumors": {"system": "GEMM6 tumors", "test": "GEMM6 melanoma tumor model", "assay_type": "in vivo", "protocol": "Tumor implantation, treatment and harvest. For animal studies, 1*10^5 B16F10 luciferase-tagged melanoma cells, 1*10^6 GEMM6 melanoma cells or 2*10^6 LCC cells were implanted subcutaneously into C57BL/6J mice (randomized, both males and females, 000664 The Jackson laboratory). When indicated, mice received intraperitoneal injections 7 days after implantation with 100 μl of 5 mg/kg cisplatin (Tocris), 100 μl of 10 mg/kg BVT948 (Tocris) or 100 μl of 30 mg/kg of vemurafenib. […]\nImmunohistochemistry analysis. Immunohistochemistry assay was carried out in formalin-fixed, paraffin-embedded 4 μm sections using primary antibodies against F4:80 (AbD Serotec), CD11b (Abcam), CD4 (eBioscience) or CD8a (eBioscience) on a Discovery Ultra Automated IHC staining system (Ventana). Sections were then imaged using a ScanScope XT microscope (Aperio) and quantified using Aperio software."}, "[1]": {"system": "MyD88 protein in macrophages", "test": "Immunofluorescent staining of M1 macrophages cultured in B16F10 conditioned medium", "assay_type": "cell-based, mouse", "conditions": "24 hours", "protocol": "Immunofluorescence staining and quantitation. After treatments, mouse macrophages were fixed with 4% formaldehyde (Electron Microscopy Sciences) and permeabilized with acetone (Fisher scientific). Samples were blocked using BlockAid blocking solution (Thermofisher scientific), were incubated with primary antibodies to MyD88 (Cell signaling), CD86 (Biolegend) and total STAT1 (Cell signaling) and Alexa Fluor 488-labeled secondary antibody (LifeTech) and were mounted with SlowFade Gold Antifade Mountant with DAPI (Invitrogen). Images were taken with using a BZ-X810 all-in-one fluorescence microscope (Keyence). Fluorescence intensity was measured with BZ-X800 software while colocalization was analyzed using ImageJ software with JACoP plugin (NIH)"}, "[2]": {"system": "Stat1 phosphorylation and MyD88 in macrophages", "test": "Transwell co-culture of M1 induced macrophages with tumor cells plus inhibitors (Western blot, qRT-PCR)", "assay_type": "cell-based, mouse", "conditions": "24 hours", "protocol": "Peritoneal macrophage isolation and culture. Peritoneal macrophages were done as described previously(65) from 8-week-old C57BL/6J mice (randomized, both male and female). PBS (Gibco) was injected in the mural peritoneal cavity to release the macrophages. After recovering, cells were centrifuged at 1200 rpm for 5 minutes, resuspended in DMEM high glucose, 10% FBS, 1% penicillin-streptomycin (Gibco) and plated. 2 hours after the last step, cells were washed with PBS and maintained in DMEM/F12 supplemented with 10% FBS, 1% penicillin-streptomycin and 20 ng/ml of M-CSF (Prospec) for 2 days. Macrophages were treated for 24 hours with 50 ng/ml LPS (Sigma Millipore), 100 ng/ml IFNγ (BioLegend), 300 ng/ml PAM3CSK4 (InvivoGen), 107 cells/ml heat killed Listeria Monocytogenes (HKLM) (InvivoGen), 100 ng/ml Flagellin Salmonella typhimurium standard (InvivoGen), 10 ng/ml FSL1 (InvivoGen), 2.5 ug/ml ssRNA40 (InvivoGen), 2.5 ug/ml CL 075 (Tocris), 5 μM ODN1826, 50 μM Fludarabine (SelleckChem), 50 nM Momelotinib (SelleckChem), 5 μM BVT948 (Sigma Millipore), 200 μM PTP1b inhibitor III (Santa Cruz Biotechnology Inc.), 5 μM NSC87877 (Santa Cruz Biotechnology Inc.), 50 μM PTP1b inhibitor (Cayman), 1 mM PTP Inhibitor IV (Santa Cruz Biotechnology Inc.), 1 μM TSC401, 300 nM UNC2371 (SelleckChem), 300 nM BMS777607 (SelleckChem), 300 nM LDC1267 (SelleckChem) 1.5 μg/ml recombinant Pros1 (R&D systems), 200 ng/ml recombinant Gas6 (R&D systems) or 10-500 μM Cisplatin (Tocris). All components were added as described in the text. Cell culture. B16F10 (CRL-6475, ATCC), Lewis lung carcinoma (LLC) (CRL-1642, ATCC), KPC2713 (Yuliya Pylayeva-Gupta laboratory, UNC) and MDA-MB-231 (HTB-26, ATCC) were cultured in DMEM high glucose supplemented with 10% FBS, 1% penicillin-streptomycin (Gibco). […]"}, "[3]": {"conditions": "BVT948 monotherapy, treatment from palpable tumors (50 mm^3), 8 mice per arm"}}, "data": [{"substance": "BVT948", "values": [{"measurement": "decrease in GEMM6 tumor growth, combination", "setting": "GEMM6 tumors; BVT948 in combination with Vemurafenib", "result": "roughly 50%"}, {"measurement": "tumor viability (H&E staining)", "setting": "GEMM6 tumors; BVT948 monotherapy, GEMM6 tumors", "result": "not significantly changed"}, {"measurement": "mice completely regressing and immune to rechallenge 1 month later", "setting": "GEMM6 tumors; [3]", "result": "3/8"}, {"measurement": "mice showing reductions in tumor growth", "setting": "GEMM6 tumors; [3]", "result": "6/8"}, {"measurement": "mice that died (most likely drug toxicity or autoimmune response)", "setting": "GEMM6 tumors; [3]", "result": "2/8"}, {"measurement": "GEMM6 tumor growth, monotherapy vs vehicle", "setting": "GEMM6 tumors; larger tumors (200 mm^3), BVT948 10 mg/kg or Vemurafenib 30 mg/kg intraperitoneal", "result": "did not significantly reduce"}, {"measurement": "MyD88 protein level and localization", "setting": "[1]", "result": "increased MyD88"}, {"measurement": "Stat1 phosphorylation at Tyrosine 701 and Serine 727", "setting": "[2]", "result": "increased"}]}]}
